# Earlier results as cited in patent US20230117831A1, “MULTI-FUNCTIONAL CHIMERIC MOLECULES” (THE BROAD INSTITUTE, INC., priority 2020, published 2023).
# Values joined by “and” are separate entries in the source; they are usually repeats but may differ in a detail not shown here. Equal entries are not always repeated. Where two headings read alike, the source gives them in different places.
# Columns and labels:
# PKCalpha = PKCalpha (Homo sapiens, UniProt P17252); conditions: cited from earlier work
# PKC beta = PKC beta (Homo sapiens, UniProt P05771); conditions: PKC beta; read-out: Kd; cited from earlier work
# PKC epsilon = molecular target: T1, PKC epsilon (Homo sapiens, UniProt Q02156); conditions: PKC epsilon; read-out: Kd; cited from earlier work
# T1 sequence (Q02156 1-737): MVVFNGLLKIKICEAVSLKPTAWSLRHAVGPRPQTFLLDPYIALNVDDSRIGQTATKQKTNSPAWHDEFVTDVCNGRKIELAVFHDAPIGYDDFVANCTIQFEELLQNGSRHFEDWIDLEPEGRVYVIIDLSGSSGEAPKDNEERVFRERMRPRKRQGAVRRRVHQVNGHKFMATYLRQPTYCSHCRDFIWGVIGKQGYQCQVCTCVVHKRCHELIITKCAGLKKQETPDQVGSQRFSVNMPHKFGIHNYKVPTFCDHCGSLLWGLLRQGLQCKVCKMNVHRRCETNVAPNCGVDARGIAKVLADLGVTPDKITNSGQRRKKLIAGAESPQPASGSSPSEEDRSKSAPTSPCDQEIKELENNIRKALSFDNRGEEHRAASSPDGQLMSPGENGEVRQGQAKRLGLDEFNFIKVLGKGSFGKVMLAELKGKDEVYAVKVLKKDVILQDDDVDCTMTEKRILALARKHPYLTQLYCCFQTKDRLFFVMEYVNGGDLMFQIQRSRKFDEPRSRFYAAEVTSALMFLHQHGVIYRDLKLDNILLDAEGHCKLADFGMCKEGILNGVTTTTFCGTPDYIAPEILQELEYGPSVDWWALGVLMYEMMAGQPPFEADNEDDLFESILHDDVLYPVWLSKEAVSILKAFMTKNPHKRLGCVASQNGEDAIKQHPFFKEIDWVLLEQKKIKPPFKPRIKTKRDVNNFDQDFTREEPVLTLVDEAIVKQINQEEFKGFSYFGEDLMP
# PKC gamma = PKC gamma (Homo sapiens, UniProt P05129); conditions: PKC gamma; read-out: Kd; cited from earlier work
# PKC delta = PKC delta (Homo sapiens, UniProt Q05655); conditions: PKC delta; read-out: Kd; cited from earlier work
# PIK3Cα/PIK3R1 = PIK3Cα/PIK3R1 (Homo sapiens, UniProt P42336); conditions: cited from earlier work
# PIK3Cγ = PIK3Cγ (Homo sapiens, UniProt P48736); conditions: cited from earlier work
# PIK3Cδ/PIK3R1 = PIK3Cδ/PIK3R1 (Homo sapiens, UniProt O00329); conditions: cited from earlier work
# AurB (AURKB) = AurB (AURKB) (Homo sapiens, UniProt Q96GD4); conditions: cited from earlier work
# AurA (AURKA) = molecular target: T2, AurA (AURKA) (Homo sapiens, UniProt O14965); conditions: cited from earlier work
# T2 sequence (O14965 1-403): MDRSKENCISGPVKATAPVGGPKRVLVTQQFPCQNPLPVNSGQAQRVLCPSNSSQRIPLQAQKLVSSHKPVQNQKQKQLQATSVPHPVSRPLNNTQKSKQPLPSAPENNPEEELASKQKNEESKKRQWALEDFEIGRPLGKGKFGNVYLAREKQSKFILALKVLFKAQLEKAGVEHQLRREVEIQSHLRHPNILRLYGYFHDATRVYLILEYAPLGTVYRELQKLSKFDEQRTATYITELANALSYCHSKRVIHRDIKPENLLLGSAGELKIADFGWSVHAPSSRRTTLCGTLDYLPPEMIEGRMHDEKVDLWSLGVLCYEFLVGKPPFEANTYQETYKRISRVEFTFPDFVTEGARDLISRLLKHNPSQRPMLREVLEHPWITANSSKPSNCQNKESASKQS
# Chain of PIK3Cα/PIK3R1 (P42336 whole entry): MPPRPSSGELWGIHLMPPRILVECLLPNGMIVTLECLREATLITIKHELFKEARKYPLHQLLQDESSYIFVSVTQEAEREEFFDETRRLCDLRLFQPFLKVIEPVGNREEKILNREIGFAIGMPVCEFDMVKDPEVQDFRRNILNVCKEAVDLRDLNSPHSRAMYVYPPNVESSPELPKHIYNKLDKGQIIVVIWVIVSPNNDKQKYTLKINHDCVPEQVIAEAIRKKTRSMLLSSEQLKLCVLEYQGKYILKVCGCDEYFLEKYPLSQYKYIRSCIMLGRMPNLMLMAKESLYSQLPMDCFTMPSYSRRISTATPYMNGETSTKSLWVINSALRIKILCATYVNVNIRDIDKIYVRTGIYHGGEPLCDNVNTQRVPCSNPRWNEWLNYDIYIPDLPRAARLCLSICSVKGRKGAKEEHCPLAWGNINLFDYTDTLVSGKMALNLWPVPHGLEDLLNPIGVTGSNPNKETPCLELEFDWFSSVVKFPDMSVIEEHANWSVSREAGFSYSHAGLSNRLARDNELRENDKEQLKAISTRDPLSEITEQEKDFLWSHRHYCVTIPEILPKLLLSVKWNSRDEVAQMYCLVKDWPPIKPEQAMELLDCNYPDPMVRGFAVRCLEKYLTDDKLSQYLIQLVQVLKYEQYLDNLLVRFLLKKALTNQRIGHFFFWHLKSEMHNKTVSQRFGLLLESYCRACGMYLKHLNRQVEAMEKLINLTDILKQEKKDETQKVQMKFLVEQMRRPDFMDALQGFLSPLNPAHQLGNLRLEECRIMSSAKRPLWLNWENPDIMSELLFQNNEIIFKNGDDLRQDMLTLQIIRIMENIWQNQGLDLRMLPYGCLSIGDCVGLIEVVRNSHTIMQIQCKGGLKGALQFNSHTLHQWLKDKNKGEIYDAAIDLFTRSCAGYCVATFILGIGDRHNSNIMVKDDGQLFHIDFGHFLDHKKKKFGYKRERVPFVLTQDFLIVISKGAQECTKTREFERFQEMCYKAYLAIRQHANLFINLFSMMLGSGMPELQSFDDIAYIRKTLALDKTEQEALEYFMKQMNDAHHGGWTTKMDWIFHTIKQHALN
# Chain of PIK3Cα/PIK3R1 (P27986 whole entry partner): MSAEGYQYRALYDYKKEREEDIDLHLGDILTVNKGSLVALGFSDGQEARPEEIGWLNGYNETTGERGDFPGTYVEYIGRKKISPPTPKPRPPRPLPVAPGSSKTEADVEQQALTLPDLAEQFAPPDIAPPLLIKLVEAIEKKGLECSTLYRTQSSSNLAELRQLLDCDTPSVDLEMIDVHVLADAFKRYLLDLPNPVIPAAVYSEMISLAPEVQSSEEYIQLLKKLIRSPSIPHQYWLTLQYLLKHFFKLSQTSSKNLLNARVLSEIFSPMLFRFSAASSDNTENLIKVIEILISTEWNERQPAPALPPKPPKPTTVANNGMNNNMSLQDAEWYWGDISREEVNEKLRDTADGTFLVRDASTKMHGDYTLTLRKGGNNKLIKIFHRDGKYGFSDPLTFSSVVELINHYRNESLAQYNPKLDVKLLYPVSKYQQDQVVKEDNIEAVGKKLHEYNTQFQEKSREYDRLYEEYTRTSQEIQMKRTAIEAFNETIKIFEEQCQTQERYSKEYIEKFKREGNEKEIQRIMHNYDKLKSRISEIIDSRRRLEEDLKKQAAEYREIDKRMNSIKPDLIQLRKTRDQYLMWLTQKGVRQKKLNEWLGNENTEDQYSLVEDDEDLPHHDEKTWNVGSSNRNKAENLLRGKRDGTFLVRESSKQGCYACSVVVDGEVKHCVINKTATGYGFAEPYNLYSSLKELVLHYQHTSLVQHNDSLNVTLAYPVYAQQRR
# Chain of PIK3Cγ (P48736 whole entry): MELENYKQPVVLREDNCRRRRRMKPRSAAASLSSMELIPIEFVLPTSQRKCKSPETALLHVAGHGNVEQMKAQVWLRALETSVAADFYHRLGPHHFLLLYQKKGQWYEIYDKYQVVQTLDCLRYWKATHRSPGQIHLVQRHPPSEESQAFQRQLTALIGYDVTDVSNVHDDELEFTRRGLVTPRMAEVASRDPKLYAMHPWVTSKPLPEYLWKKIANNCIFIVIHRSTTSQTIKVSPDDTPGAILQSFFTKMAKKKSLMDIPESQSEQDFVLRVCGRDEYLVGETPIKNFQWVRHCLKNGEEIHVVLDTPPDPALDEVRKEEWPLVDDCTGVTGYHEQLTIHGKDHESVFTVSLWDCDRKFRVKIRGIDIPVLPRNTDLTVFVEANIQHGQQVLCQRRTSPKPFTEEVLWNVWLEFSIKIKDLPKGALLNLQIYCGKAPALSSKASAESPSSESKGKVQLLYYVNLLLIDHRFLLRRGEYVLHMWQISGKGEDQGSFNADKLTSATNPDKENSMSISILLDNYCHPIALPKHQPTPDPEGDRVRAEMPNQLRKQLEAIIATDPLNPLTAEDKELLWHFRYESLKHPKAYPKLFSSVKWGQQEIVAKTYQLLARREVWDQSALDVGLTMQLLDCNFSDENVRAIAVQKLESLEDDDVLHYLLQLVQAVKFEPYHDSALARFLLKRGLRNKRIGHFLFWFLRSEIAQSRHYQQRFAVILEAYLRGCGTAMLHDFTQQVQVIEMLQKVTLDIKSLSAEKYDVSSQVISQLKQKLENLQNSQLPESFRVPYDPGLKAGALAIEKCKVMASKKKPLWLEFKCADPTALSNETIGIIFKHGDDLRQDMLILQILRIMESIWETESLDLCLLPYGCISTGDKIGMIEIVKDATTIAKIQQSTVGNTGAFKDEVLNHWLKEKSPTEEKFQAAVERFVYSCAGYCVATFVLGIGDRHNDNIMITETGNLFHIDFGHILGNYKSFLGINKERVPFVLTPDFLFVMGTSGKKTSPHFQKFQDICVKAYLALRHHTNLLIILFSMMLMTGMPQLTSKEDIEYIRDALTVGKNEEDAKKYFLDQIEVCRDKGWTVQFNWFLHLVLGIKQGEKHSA
# Chain of PIK3Cδ/PIK3R1 (O00329 whole entry): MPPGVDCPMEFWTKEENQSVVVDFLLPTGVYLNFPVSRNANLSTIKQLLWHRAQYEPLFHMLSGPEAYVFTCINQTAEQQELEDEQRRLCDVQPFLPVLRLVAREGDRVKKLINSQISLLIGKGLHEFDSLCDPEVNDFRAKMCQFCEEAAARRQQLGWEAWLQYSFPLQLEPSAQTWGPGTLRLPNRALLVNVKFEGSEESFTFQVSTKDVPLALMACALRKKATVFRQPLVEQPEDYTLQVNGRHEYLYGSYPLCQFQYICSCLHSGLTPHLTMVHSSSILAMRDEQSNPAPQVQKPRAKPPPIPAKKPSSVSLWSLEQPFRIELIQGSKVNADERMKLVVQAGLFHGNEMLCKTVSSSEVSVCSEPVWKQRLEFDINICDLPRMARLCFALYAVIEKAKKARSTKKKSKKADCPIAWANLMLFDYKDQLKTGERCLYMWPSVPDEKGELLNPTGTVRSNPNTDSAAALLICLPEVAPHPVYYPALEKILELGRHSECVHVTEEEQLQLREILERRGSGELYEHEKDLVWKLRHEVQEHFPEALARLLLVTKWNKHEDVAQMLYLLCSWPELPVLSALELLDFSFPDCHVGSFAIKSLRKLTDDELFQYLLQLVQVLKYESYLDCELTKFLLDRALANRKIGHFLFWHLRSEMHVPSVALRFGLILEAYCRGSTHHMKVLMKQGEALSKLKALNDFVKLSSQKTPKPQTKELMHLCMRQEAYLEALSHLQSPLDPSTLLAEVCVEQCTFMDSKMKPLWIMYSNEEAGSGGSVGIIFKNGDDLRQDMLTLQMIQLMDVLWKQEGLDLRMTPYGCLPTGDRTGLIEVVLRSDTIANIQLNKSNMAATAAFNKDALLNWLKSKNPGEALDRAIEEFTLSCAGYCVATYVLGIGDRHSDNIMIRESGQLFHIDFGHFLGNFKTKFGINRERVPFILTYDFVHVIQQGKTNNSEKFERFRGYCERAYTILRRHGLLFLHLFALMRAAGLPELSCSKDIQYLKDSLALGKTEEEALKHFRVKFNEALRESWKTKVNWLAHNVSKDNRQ
# Chain of PIK3Cδ/PIK3R1 (P27986 whole entry partner): as the sequence (P27986 whole entry partner) above
# Chain of AurB (AURKB) (Q96GD4 whole entry, species assumed): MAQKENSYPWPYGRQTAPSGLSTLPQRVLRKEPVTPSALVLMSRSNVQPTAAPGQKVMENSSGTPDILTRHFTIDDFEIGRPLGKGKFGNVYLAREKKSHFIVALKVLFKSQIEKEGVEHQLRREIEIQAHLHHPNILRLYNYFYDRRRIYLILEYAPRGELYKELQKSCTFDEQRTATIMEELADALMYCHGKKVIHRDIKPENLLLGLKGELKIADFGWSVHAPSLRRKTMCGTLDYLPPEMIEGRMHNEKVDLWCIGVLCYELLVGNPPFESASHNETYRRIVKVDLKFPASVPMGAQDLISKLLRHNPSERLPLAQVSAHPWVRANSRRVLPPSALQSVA
smiles,measurement,setting,value
CCCCC#Cc1cccc(C(=O)Nc2ccc3c(c2)N(C)[C@@H](C(C)C)C(=O)NC(CO)C3)c1 (some centres unmarked),Kd,"PKCalpha; PKC alpha, read-out: Kd",4.1 nM
CC(C)[C@H]1C(=O)N[C@H](CO)Cc2cc(NC(=O)CCCCc3ccc(C(F)(F)F)cc3)ccc2N1C,Kd,PKCalpha,12.5 nM
CCCCCCCCCCc1cccc2c1C[C@@H](CO)NC(=O)[C@H](C(C)C)N2C,Kd,PKC beta,309 nM
same,Kd,PKC epsilon,60 nM
same,Kd,PKC gamma,409 nM
same,Kd,PKC delta,169 nM
same,Kd,"PKCalpha; PKC alpha, read-out: Kd",513 nM
Nc1cc(C(F)(F)F)c(-c2cc(N3CCOCC3)nc(N3CCOCC3)n2)cn1 [Buparlisib],ka,PIK3Cα/PIK3R1,3.26e+06 M⁻¹ s⁻¹
same,kd,PIK3Cα/PIK3R1,0.0209 s⁻¹
same,log(ka),PIK3Cα/PIK3R1,6.51
same,log(kd),PIK3Cα/PIK3R1,−1.68
CC(C)[C@H]1C(=O)N[C@H](CO)Cc2ccc(NC(=O)/C=C/c3ccccc3)cc2N1C,Kd,"PKCalpha; PKC alpha, read-out: Kd",114 nM
COc1ccc(-c2ccc3c(N4CCOC[C@@H]4C)nc(N4CCOC[C@@H]4C)nc3n2)cc1CO [AZD-8055],Kd,PIK3Cα/PIK3R1,9.4 nM
same,ka,PIK3Cα/PIK3R1,3.61e+06 M⁻¹ s⁻¹
same,kd,PIK3Cα/PIK3R1,0.0339 s⁻¹
same,log(ka),PIK3Cα/PIK3R1,6.56
same,log(kd),PIK3Cα/PIK3R1,−1.47
same,residence time (τ),PIK3Cα/PIK3R1,29 s
same,Kd,PIK3Cγ,92.5 nM
same,ka,PIK3Cγ,1.59e+06 M⁻¹ s⁻¹
same,kd,PIK3Cγ,0.147 s⁻¹
same,log(ka),PIK3Cγ,6.20
same,log(kd),PIK3Cγ,−0.83
same,residence time (τ),PIK3Cγ,7 s
same,Kd,PIK3Cδ/PIK3R1,33.6 nM
same,ka,PIK3Cδ/PIK3R1,1.93e+06 M⁻¹ s⁻¹
same,kd,PIK3Cδ/PIK3R1,0.065 s⁻¹
same,log(ka),PIK3Cδ/PIK3R1,6.29
same,log(kd),PIK3Cδ/PIK3R1,−1.19
same,residence time (τ),PIK3Cδ/PIK3R1,15 s
Cc1nc(NC(=O)N2CCC[C@H]2C(N)=O)sc1-c1ccnc(C(C)(C)C(F)(F)F)c1 [Alpelisib],ka,PIK3Cγ,4.05e+06 M⁻¹ s⁻¹
same,kd,PIK3Cγ,0.0395 s⁻¹
same,log(ka),PIK3Cγ,6.61
same,log(kd),PIK3Cγ,−1.40
same,ka,PIK3Cδ/PIK3R1,6.16e+06 M⁻¹ s⁻¹
same,kd,PIK3Cδ/PIK3R1,0.0641 s⁻¹
same,log(ka),PIK3Cδ/PIK3R1,6.79
same,log(kd),PIK3Cδ/PIK3R1,−1.19
Cc1csc(-c2nnc(Nc3ccc(Oc4ncccc4-c4ccnc(N)n4)cc3)c3ccccc23)c1 [AMG900],Kd,AurB (AURKB),0.393 nM
same,ka,AurB (AURKB),58800 M⁻¹ s⁻¹
same,kd,AurB (AURKB),2.31e-05 s⁻¹
same,ka,AurA (AURKA),220000 M⁻¹ s⁻¹
same,kd,AurA (AURKA),0.000261 s⁻¹
same,log(ka),AurA (AURKA),5.34
same,log(kd),AurA (AURKA),−3.58
CCCCCCCCc1ccc2c3c(c[nH]c13)CC[C@@H](CO)NC(=O)[C@H](C(C)C)N2C,Kd,PKC beta,0.4 nM
same,Kd,PKC epsilon,1 nM
same,Kd,PKC gamma,1.2 nM
same,Kd,PKC delta,0.8 nM
same,Kd,"PKCalpha; PKC alpha, read-out: Kd",0.5 nM
CC(C)[C@H]1C(=O)N[C@H](CO)Cc2ccc(NC(=O)/C=C/C=C/c3ccccc3)cc2N1C,Kd,"PKCalpha; PKC alpha, read-out: Kd",49.8 nM
CCCCCCCCC#Cc1cccc(-c2ccc3c(c2)C[C@@H](CO)NC(=O)[C@H](C(C)C)N3C)c1,Kd,"PKCalpha; PKC alpha, read-out: Kd",309 nM
CCCCCCCCC#Cc1ccc(-c2ccc3c(c2)C[C@@H](CO)NC(=O)[C@H](C(C)C)N3C)cc1,Kd,"PKCalpha; PKC alpha, read-out: Kd",703 nM
CCn1cc(-c2ccnc3[nH]c(-c4cccc(CN(C)C)c4)cc23)c(-c2ccc(NC(=O)N(C)C)cc2)n1 [GSK1070916],Kd,AurB (AURKB),4.48 nM
same,ka,AurB (AURKB),14000 M⁻¹ s⁻¹
same,kd,AurB (AURKB),6.28e-05 s⁻¹
CCCCc1ccc(C(=O)Nc2ccc3c(c2)N(C)[C@@H](C(C)C)C(=O)NC(CO)C3)cc1 (some centres unmarked),Kd,"PKCalpha; PKC alpha, read-out: Kd",9.5 nM
CCCCCCCCC#Cc1cccc(-c2ccc3c(c2)N(C)[C@@H](C(C)C)C(=O)N[C@H](CO)C3)c1,Kd,"PKCalpha; PKC alpha, read-out: Kd",5.9 nM
CC(C)[C@H]1C(=O)N[C@H](CO)Cc2ccc(NC(=O)c3ccccc3)cc2N1C,Kd,"PKCalpha; PKC alpha, read-out: Kd",174 nM
CCCCCCCCC#Cc1ccc(-c2ccc3c(c2)C[C@@H](CO)NC(=O)[C@H](C(C)C)N3C)s1,Kd,"PKCalpha; PKC alpha, read-out: Kd",396 nM
O=C(O)[C@]1(Cc2cccc(Nc3nccs3)n2)CC[C@@H](Oc2cccc(Cl)c2F)CC1 [MK5108],ka,AurA (AURKA),3.41e+06 M⁻¹ s⁻¹
same,kd,AurA (AURKA),0.0155 s⁻¹
same,log(ka),AurA (AURKA),6.53 and 6.56
same,log(kd),AurA (AURKA),−1.81
CC(C)[C@H]1C(=O)NC(CO)Cc2ccc(NC(=O)c3ccc(-c4ccccc4)cc3)cc2N1C (some centres unmarked),Kd,"PKCalpha; PKC alpha, read-out: Kd",25.9 nM
